Experimental data published in ChEMBL document CHEMBL1128401, “Structure-activity relationships in the 8-amino-6,7,8,9-tetrahydro-3H-benz[e]indole ring system. 1. Effects of substituents in the aromatic system on serotonin and dopamine receptor subtypes” (J Med Chem, 1995).
The source made the active and inactive calls. No cut-off for these calls is given here.

Experiments:
Rattus norvegicus [1] = test: Bioavailability in male Sprague-Dawley rats, after the po administration at a dose of 10.0(pmol/g/h); format: ADME, organism-based; conditions: in vivo
Rattus norvegicus [2] = test: Bioavailability in male Sprague-Dawley rats, after the iv administration at a dose of 2.0(pmol/g/h); format: ADME, organism-based; conditions: in vivo
[3] = tmax in hours at a po dose of 10.0(pmol/g/h).; format: ADME, organism-based; conditions: in vivo
[4] = Bioavailability in rat plasma following iv/po dose; format: ADME, organism-based
[5] = tmax in hours at a iv dose of 2.0(pmol/g/h).; format: ADME, organism-based; conditions: in vivo
Rattus norvegicus [6] = test: The Compound was tested in vivo for DOPA accumulation in limbic system against reserpine-pretreated rats; P=significant partial reduction only at the highest dose tested (40).; format: functional, organism-based
Rattus norvegicus [7] = test: Compound was tested in vivo for DOPA accumulation in corpus striatum against reserpine-pretreated rats;P= significant partial reduction only at the highest dose tested (40).; format: functional, organism-based
[8] = biological target: 5-hydroxytryptamine receptor 1B (Homo sapiens, UniProt P28222); test: Binding affinity against 5-hydroxytryptamine 1D receptor beta expressed in CHO-K1 cells, using [3H]5-HT as the radioligand.; format: cell-based
Rattus norvegicus [9] = test: In vivo for 5-HTP accumulation in limbic system against reserpine-pretreated rats.; format: functional
D(2) dopamine receptor [10] = biological target: T1, D(2) dopamine receptor (Rattus norvegicus, UniProt P61169); test: Binding affinity against Dopamine receptor D2 from CHO-K1 cells, using [3H]U-86,170 as the radioligand.; format: cell-based
Rattus norvegicus [11] = test: The Compound was tested in vivo for DOPA accumulation in hemispheres (cortex) against reserpine-pretreated rats;I= inactive at the highest dose (40); format: functional, organism-based
[12] = biological target: T2, 5-hydroxytryptamine receptor 1A (Rattus norvegicus, UniProt P19327); test: Binding affinity against 5-hydroxytryptamine 1A receptor from CHO-K1 cells, using [3H]8-OH-DPAT as the radioligand.; format: cell-based
T2 sequence (P19327 whole entry): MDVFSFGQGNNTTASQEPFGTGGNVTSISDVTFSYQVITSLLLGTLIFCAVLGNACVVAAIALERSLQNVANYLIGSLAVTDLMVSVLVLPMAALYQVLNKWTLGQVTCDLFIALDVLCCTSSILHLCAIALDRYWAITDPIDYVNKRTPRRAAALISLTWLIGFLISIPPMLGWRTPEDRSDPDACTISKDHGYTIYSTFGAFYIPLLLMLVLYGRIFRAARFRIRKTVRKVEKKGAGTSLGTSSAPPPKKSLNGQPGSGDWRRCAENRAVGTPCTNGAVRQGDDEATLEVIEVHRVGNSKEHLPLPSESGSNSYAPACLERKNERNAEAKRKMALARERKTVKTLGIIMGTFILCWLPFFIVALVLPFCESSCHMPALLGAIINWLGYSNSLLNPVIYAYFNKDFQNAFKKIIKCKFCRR

Rattus norvegicus [13] = test: In vivo for 5-HTP accumulation in corpus striatum against reserpine-pretreated rats.; format: functional
Rattus norvegicus [14] = test: Compound was tested in vivo for 5-HTP accumulation in hemispheres (cortex) against reserpine-pretreated rats; significant partial reduction only at the highest dose tested (40).; format: functional, organism-based
D(3) dopamine receptor [15] = biological target: T3, D(3) dopamine receptor (Rattus norvegicus, UniProt P19020); test: Binding affinity against Dopamine receptor D3 from CHO-K1 cells, using [3H]spiperone as the radioligand.; format: cell-based; conditions: read-out: Ki
[16] = biological target: 5-hydroxytryptamine receptor 1D (Homo sapiens, UniProt P28221); test: Binding affinity against 5-hydroxytryptamine 1D receptor alpha expressed in CHO-K1 cells, using [3H]-5-HT as the radioligand.; format: cell-based; conditions: read-out: Ki
Rattus norvegicus [17] = test: The Compound was tested in vivo for DOPA accumulation in limbic system against reserpine-pretreated rats; P=significant partial reduction only at the highest dose tested (50).; format: functional, organism-based
D(3) dopamine receptor [18] = biological target: T3, D(3) dopamine receptor; test: Binding affinity against Dopamine receptor D3 expressed in CHO-K1 cells, using [3H]spiperone as the radioligand.; format: cell-based
D(2) dopamine receptor [19] = biological target: T1, D(2) dopamine receptor; test: Binding affinity against Dopamine receptor D2 expressed in CHO-K1 cells, using [3H]U-86170 as the radioligand.; format: cell-based
Rattus norvegicus [20] = test: The Compound was tested in vivo for DOPA accumulation in hemispheres (cortex) against reserpine-pretreated rats; I=inactive at the highest dose tested (50).; format: functional, organism-based
Rattus norvegicus [21] = test: Compound was tested in vivo for DOPA accumulation in corpus striatum against reserpine-pretreated rats; P=significant partial reduction only at the highest dose tested (50).; format: functional, organism-based
Rattus norvegicus [22] = test: Compound was tested in vivo for DOPA accumulation in corpus striatum against reserpine-pretreated rats;P= significant partial reduction only at the highest dose tested (50).; format: functional, organism-based
Rattus norvegicus [23] = test: In vivo for 5-HTP accumulation in hemispheres (cortex) against reserpine-pretreated rats.; format: functional
Rattus norvegicus [24] = test: The Compound was tested in vivo for DOPA accumulation in hemispheres (cortex) against reserpine-pretreated rats;I= inactive at the highest dose tested (50).; format: functional, organism-based
Rattus norvegicus [25] = test: In vivo for DOPA accumulation in limbic system against reserpine-pretreated rats.; format: functional
Rattus norvegicus [26] = test: The Compound was tested in vivo for DOPA accumulation in hemispheres (cortex) against reserpine-pretreated rats; I=inactive at the highest dose tested (3.1).; format: functional, organism-based
Rattus norvegicus [27] = test: In vivo for DOPA accumulation in corpus striatum against reserpine-pretreated rats.; format: functional
Rattus norvegicus [28] = test: The Compound was tested in vivo for DOPA accumulation in hemispheres (cortex) against reserpine-pretreated rats;I= inactive at the highest dose (12.5); format: functional, organism-based
Rattus norvegicus [29] = test: The compound was tested in vivo for DOPA accumulation in limbic system against reserpine-pretreated rats; I= inactive at the highest dose tested (50).; format: functional, organism-based
Rattus norvegicus [30] = test: compound was tested in vivo for 5-HTP accumulation in corpus striatum against reserpine-pretreated rats, activity expressed as ED50; format: functional
Rattus norvegicus [31] = test: compound was tested in vivo for 5-HTP accumulation in hemispheres (cortex) against reserpine-pretreated rats; format: functional
Rattus norvegicus [32] = test: compound was tested in vivo for DOPA accumulation in corpus striatum against reserpine-pretreated rats; I= inactive at the highest dose tested (50).; format: functional, organism-based
Rattus norvegicus [33] = test: The compound was tested in vivo for DOPA accumulation in hemispheres (cortex) against reserpine-pretreated rats; I= inactive at the highest dose tested (50).; format: functional, organism-based
D(3) dopamine receptor [34] = biological target: T3, D(3) dopamine receptor; test: The compound was tested in vitro for binding affinity against cloned mammalian Dopamine receptor D3 expressed in CHO cells by, using [3H]spiperone as radioligand; format: cell-based
Rattus norvegicus [35] = test: compound was tested in vivo for 5-HTP accumulation in limbic system against reserpine-pretreated rats,; format: functional
Rattus norvegicus [36] = test: The Compound was tested in vivo for DOPA accumulation in hemispheres (cortex) against reserpine-pretreated rats; P=significant partial reduction only at the highest dose tested (50).; format: functional, organism-based
[37] = Ratio of the 5-HTP accumulation decrease in limbic regions after oral and subcutaneous administration in rat.; format: functional, Limbic system

Sequence of 5-hydroxytryptamine receptor 1B (P28222 whole entry): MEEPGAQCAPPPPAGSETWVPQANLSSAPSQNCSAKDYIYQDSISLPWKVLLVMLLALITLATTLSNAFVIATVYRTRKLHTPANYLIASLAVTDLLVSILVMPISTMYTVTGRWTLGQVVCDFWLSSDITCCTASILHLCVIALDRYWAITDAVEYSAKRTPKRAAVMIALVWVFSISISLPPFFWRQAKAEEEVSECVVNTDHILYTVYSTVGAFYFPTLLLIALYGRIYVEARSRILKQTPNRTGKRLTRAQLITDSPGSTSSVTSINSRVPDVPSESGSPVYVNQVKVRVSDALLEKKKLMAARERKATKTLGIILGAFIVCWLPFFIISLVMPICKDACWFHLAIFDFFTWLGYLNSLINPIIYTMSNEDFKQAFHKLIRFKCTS
T1 sequence (P61169 whole entry): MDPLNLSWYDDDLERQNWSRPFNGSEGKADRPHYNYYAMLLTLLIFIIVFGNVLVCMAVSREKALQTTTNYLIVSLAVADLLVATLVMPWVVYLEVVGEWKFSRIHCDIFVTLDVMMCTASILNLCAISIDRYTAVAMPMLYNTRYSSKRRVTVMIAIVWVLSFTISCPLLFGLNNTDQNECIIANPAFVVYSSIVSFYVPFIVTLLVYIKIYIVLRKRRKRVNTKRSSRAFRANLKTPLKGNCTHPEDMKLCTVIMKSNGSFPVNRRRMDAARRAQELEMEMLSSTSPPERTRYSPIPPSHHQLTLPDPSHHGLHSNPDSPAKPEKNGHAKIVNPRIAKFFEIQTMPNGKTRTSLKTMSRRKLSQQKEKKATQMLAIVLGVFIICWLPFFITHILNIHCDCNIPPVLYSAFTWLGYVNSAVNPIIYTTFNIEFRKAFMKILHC
Sequence of 5-hydroxytryptamine receptor 1D (P28221 whole entry): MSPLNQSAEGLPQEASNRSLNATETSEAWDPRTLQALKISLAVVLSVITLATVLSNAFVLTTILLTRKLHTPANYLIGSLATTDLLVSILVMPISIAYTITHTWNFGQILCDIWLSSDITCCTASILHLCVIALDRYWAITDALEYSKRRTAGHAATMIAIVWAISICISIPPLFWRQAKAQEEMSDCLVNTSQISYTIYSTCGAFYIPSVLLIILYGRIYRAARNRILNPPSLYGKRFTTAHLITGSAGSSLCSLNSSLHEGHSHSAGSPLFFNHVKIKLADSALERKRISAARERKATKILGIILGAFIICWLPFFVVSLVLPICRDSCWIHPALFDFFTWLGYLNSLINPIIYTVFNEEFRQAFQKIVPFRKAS
T3 sequence (P19020 whole entry): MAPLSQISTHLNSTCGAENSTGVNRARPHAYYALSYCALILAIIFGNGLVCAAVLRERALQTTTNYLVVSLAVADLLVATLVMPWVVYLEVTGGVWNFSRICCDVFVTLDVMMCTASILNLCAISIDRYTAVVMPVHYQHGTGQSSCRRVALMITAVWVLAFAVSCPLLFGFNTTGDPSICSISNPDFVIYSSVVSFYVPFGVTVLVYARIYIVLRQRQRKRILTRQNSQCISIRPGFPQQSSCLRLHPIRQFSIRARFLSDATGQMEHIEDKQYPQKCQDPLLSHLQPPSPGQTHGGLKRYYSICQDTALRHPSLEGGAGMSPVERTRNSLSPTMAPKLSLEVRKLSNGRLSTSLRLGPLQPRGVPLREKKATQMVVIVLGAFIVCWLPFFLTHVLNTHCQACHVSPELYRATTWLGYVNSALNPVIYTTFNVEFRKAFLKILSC

| Compound | ED50 (Rattus norvegicus [9]) [µmol/kg] | Ki (D(2) dopamine receptor [10]) [nM] | Ki [12] [nM] | ED50 (Rattus norvegicus [13]) [µmol/kg] | Ki [16] [nM] | Ki ([8]; read-out: Ki) [nM] | Ki (D(3) dopamine receptor [18]) [nM] | Ki (D(2) dopamine receptor [19]) [nM] | also measured |
| --- | --- | --- | --- | --- | --- | --- | --- | --- | --- |
| CN(C)[C@@H]1CCc2ccc3[nH]ccc3c2C1 |  |  |  |  |  |  |  |  | AUC (Rattus norvegicus [1]): 848 pM ml-1; AUC (Rattus norvegicus [2]): 431 pM ml-1; T max [3]: 150 h; bioavailability [4]: 46%; Tmax [5]: 2 h |
| CCCN(CCC)C1CCc2cc(F)c3[nH]cc(C(=O)CC)c3c2C1 (stereo not drawn) | 6.34 | 377 | 7.1 | 3.94 | 36 |  |  |  | ED50 (Rattus norvegicus [6]): Weak activity; ED50 (Rattus norvegicus [7]): Weak activity; Ki ([8]; cho-k1): Not Active; ED50 (Rattus norvegicus [11]): inactive; ED50 (Rattus norvegicus [14]): Active; Ki (D(3) dopamine receptor [15]): 542 nM |
| CCCN(CCC)C1CCc2cc(F)c3c(ccn3C)c2C1 (stereo not drawn) |  | 86 | 250 |  | 217 | 1650 |  |  | Ki (D(3) dopamine receptor [15]): 52 nM |
| CCCN(CCC)[C@H]1CCc2ccc3[nH]cc(C#N)c3c2C1 |  |  | 0.5 |  | 42 | 304 | 391 | 419 | ED50 (Rattus norvegicus [17]): Weak activity; ED50 (Rattus norvegicus [20]): inactive; ED50 (Rattus norvegicus [21]): Weak activity |
| CCCN(CCC)C1CCc2ccc3[nH]cc(C)c3c2C1 (stereo not drawn) |  |  |  |  | 43 |  | 67 |  |  |
| CCCN(CCC)C1CCc2ccc3[nH]cc(C(C)=O)c3c2C1 (stereo not drawn) | 15.5 |  | 14 | 16 | 108 | 587 | 320 | 206 | ED50 (Rattus norvegicus [17]): Weak activity; ED50 (Rattus norvegicus [22]): Weak activity; ED50 (Rattus norvegicus [23]): 13 µmol/kg; ED50 (Rattus norvegicus [24]): inactive |
| CCCN(CCC)[C@@H]1CCc2ccc3[nH]ccc3c2C1 | 0.21 |  |  | 0.17 | 16 | 139 | 30 | 7.4 | ED50 (Rattus norvegicus [25]): 0.15 µmol/kg; ED50 (Rattus norvegicus [26]): inactive |
| CCCN(CCC)[C@@H]1CCc2cc(F)c3[nH]ccc3c2C1 | 0.53 | 7.8 | 1.5 | 0.7 |  | 142 |  |  | ED50 (Rattus norvegicus [25]): 0.49 µmol/kg; ED50 (Rattus norvegicus [23]): 0.51 µmol/kg; ED50 (Rattus norvegicus [27]): 0.63 µmol/kg; ED50 (Rattus norvegicus [28]): inactive |
| CCCNC1CCc2cc(F)ccc2C1 (stereo not drawn) |  |  | 134 |  | 585 | 1510 |  | 162 | ED50 (Rattus norvegicus [29]): inactive; ED50 (Rattus norvegicus [30]): 9.53 µmol/kg; ED50 (Rattus norvegicus [31]): 12.8 µmol/kg; ED50 (Rattus norvegicus [32]): inactive; ED50 (Rattus norvegicus [33]): inactive; Ki (D(3) dopamine receptor [34]): 156 nM; ED50 (Rattus norvegicus [35]): 15.5 µmol/kg |
| CCCN(CCC)C1CCc2ccc3[nH]cc(Cl)c3c2C1 (stereo not drawn) |  |  | 2 |  | 23 |  | 15 | 9.8 | Ki ([8]; cho-k1): Not Active; ED50 (Rattus norvegicus [36]): Weak activity |
| CN(C)[C@H]1CCc2ccc3[nH]ccc3c2C1 |  |  |  |  |  |  |  |  | AUC (Rattus norvegicus [1]): 2224 pM ml-1; AUC (Rattus norvegicus [2]): 607 pM ml-1; ED50 ratio [37]: 18; Tmax ([3]; 10 pmol/g/h): 48 h; bioavailability [4]: 72%; Tmax [5]: 2 h |
| CCCN(CCC)C1CCc2ccc3c(c2C1)CC(=O)N3 (stereo not drawn) | 0.45 | 11 | 14 | 0.41 | 26 | 194 |  |  | ED50 (Rattus norvegicus [25]): 0.17 µmol/kg; ED50 (Rattus norvegicus [20]): inactive; ED50 (Rattus norvegicus [23]): 0.86 µmol/kg; ED50 (Rattus norvegicus [27]): 0.25 µmol/kg; Ki (D(3) dopamine receptor [15]): 23 nM |
